Laboratory results from US12151998B2, “Solid drug form of N-(2,6-bis(1-methylethyl)phenyl)-N′-((1-(4-(dimethylamino)phenyl)cyclopentyl)methyl)urea hydrochloride and compositions, methods and kits related thereto” (The Regents of the University of Michigan, priority 2014, dated 2024).
Structures can show the parent of a compound that is named as a salt.

Experiments:
[1] = Enhanced exposure with stomach acidification: pharmacokinetics of ATR-101 tablets in dogs; format: in vivo; conditions: male beagle dogs, single 125 mg ATR-101 tablet oral; pretreated with pentagastrin compared to pretreatment with famotidine
Method: To examine pharmacokinetics and exposures of ATR-101 tablets prepared according to Example 6, an in vivo study was carried out in dogs following pretreatment with pentagastrin to decrease stomach pH, or famotidine to increase the stomach pH.
The same cohort of dogs was used in both treatments and included a 5-day wash-out between the treatment arms. Male beagle dogs (approximately 6.5-12.5 kg, n=6) were fasted overnight prior to dosing and through the first 4 hours of blood sample collection. For the pentagastrin arm, the animals were pretreated with a single intramuscular injection of pentagastrin (0.06 mg/mL at a dose level of […] and a dose volume of 0.01 mL/kg) 16 to 22 minutes prior to test article administration. For the famotidine arm, animals were pretreated with a single oral tablet dose of 20 mg famotidine at 59 to 60 minutes prior to tablet administration.
Following tablet administration, each animal received 30 mL of tap water via oral gavage. Animals were treated with a single 125 mg ATR-101 tablet by oral administration. The tablet was made as described in Example 6 above, and contained the ingredients listed in Table 6, but with the amount of ATR-101 at 125 mg (as free base) rather than 500 mg and the remaining ingredients reduced by the same weight percentage. […] ATR-101 concentrations were determined by LC/MSMS.

ACC = conditions: cited from earlier work

increase in systemic exposure [1]	SMILES	delay of disease progression (average) (ACC; ACC patients that derive a therapeutic benefit)	patients with increased progression-free survival (ACC; ACC patients, fraction of patients)
57%	CC(C)c1cccc(C(C)C)c1NC(=O)NCC1(c2ccc(N(C)C)cc2)CCCC1 [ATR-101, N-(2,6-bis(1-methylethyl)phenyl)-N′-((1-(4-(dimethylamino)phenyl)cyclopentyl)methyl)urea hydrochloride]	–	–
–	Clc1ccc(C(c2ccccc2Cl)C(Cl)Cl)cc1 (stereo not drawn) [mitotane]	five	one-quarter to one-third
